Molecules are shown by their SMILES. Structures can show the parent of a compound that is named as a salt.

Usually AUC(0-t) stands for the area under the concentration-time curve up to a stated or last time point. A high value points to more exposure. What is called Cmax is the highest concentration seen after dosing. One may read the Tmax as the time from dosing to the highest level. Usually t½ stands for how long it takes for the measured level to halve. For orientation: melting point means the temperature, or range, at which the solid turns liquid.

The subject of series [1] is Swiss albino mice. In words: Plasma triglyceride and total cholesterol lowering activity in Swiss albino mice and Guinea pigs. The class given is in vivo, mouse. The conditions noted are these: oral, 6 days. On the procedure: c) Plasma Triglyceride and Total Cholesterol Lowering Activity in Swiss Albino Mice and Guinea Pigs
Male Swiss albino mice (SAM) and male Guinea pigs were obtained from NIN and housed in DRF animal house. All these animals were maintained under 12 hour light and dark cycle at 25±1° C. Animals were given standard laboratory chow (NIN Hyderabad, India) and water, ad libitum. SAM of 20-25 g body weight range and Guinea pigs of 500-700 g body weight range were used (Oliver, P., Plancke, M. O., Marzin, D., Clavey, V., Sauzieres, J and Fruchart, J. C. Effects of fenofibrate, gemfibrozil and nicotinic acid on plasma lipoprotein levels in normal and hyperlipidemic mice. Atherosclerosis. 1988. 70: 107-114).
The test compounds were administered orally to Swiss albino mice at 0.3 to 30 mg/kg/day dose for 6 days. Control mice were treated with vehicle (0.25% Carboxymethylcellulose; dose 10 ml/kg). The test compounds were administered orally to Guinea pigs at 0.3 to 30 mg/kg/day dose for 6 days. Control animals were treated with vehicle (0.25% Carboxymethylcellulose; dose 5 ml/kg).
The blood samples were collected in fed state 1 hour after drug administration on 0 and 6 day of treatment. The blood was collected from the retro-orbital sinus through heparinised capillary in EDTA containing tubes. After centrifugation, plasma sample was separated for triglyceride and total cholesterol (Wieland, O. Methods of Enzymatic analysis. Bergermeyer, H. O., Ed., 1963. 211-214; Trinder, P. Ann. Clin. Biochem. 1969. 6: 24-27). Measurement of plasma triglyceride, total cholesterol and HDL were done using commercial kits (Dr. Reddy's Diagnostic Division, Hyderabad, India).
1. Percent reduction in Blood sugar/triglycerides/total cholesterol were calculated according to the formula: [formula]

A short description of series [2]: Single dose oral pharmacokinetic studies in male Wistar rats. The class given is in vivo, rat. Particulars: fasted, suspension in 0.25% sodium CMC. The procedure: Single Dose Oral Pharmacokinetic Studies
Male Wistar rats (220-250 gm) were used in the experiments. The animals were maintained under standard laboratory conditions and had free access to feed and water ad libitum. Before experimentation animals were fasted overnight (˜15 h) during which they had free access to water ad libitum.
An amount equivalent to 30 mg of drug was weighed accurately and transferred into a clean mortar and triturated to obtain a fine powder. To this 0.5 ml of 0.25% sodium carboxy methyl cellulose (sodium CMC) was added to obtain a paste. To the obtained paste remaining 2.5 ml of sodium CMC was added to make up the volume to 3 ml. Based on the animal weight appropriate volume (body weight×3) of the prepared suspension was administered through oral gavage.
After dosing, at designated time points (0.5, 1, 2, 3, 5, 8, 12 and 24 h) 200 μl of blood was collected from retro orbital plexus into 0.5 ml eppendorff tubes containing EDTA (10 μl of 200 mg/ml solution in Milli Q water). Blood was centrifuged at 12,800 rpm for 5 min and obtained plasma and stored at −20° C. till further analysis.
100μl plasma was transferred into a clean and dry centrifuge tube. To this internal standard (10 μl of 100 μg/ml) was added and extracted with 2 ml of extraction recovery solvent. The contents were vortexed for 2 min, followed by centrifugation for 10 min at 2800 rpm. Clear organic layer (2×0.75 ml) was separated and dried under nitrogen gas at 50° C. The residue was reconstituted with 150 μl of mobile phase and vortexed for 20 sec, from this 50 μl was injected onto HPLC column.
Pharmacokinetic parameters were calculated by non-compartmental model analysis. The peak plasma concentration (Cmax) and the corresponding time (Tmax)were directly obtained from the raw data. The area under the plasma concentration versus time curve up to the last quantifiable time point, AUC(0−t) was obtained by the linear and log-linear trapezoidal summation. The AUC(0−t) extrapolated to infinity (i.e., AUC(0−∞)) by adding the quotient of Clast/Kel, where Clast represents the last measurable time concentration and Kel represents the apparent terminal rate constant. Kel was calculated by the linear regression of the log-transformed concentrations of the drug in the terminal phase. The half-life of the terminal elimination phase was obtained using the relationship t½=0.693/Kel.

Series [3] addresses T1, hPPARα (Homo sapiens, UniProt Q07869).
T1 construct: expressed in transfected cells; host or cells: HEK-293
T1 sequence (Q07869 239-466 limits assumed): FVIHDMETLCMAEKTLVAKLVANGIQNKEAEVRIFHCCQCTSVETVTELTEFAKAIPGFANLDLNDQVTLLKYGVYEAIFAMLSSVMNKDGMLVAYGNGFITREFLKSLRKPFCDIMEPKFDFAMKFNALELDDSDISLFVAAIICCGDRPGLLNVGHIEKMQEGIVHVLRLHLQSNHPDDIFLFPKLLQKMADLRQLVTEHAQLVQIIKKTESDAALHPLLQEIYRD
In words: Determination of hPPARα activity (GAL4 fusion luciferase reporter in transfected HEK-293 cells). The class given is cell-based. The conditions noted are these: compound concentration 50 μM. On the procedure:
a) Determination of hPPARα Activity
Ligand binding domain of hPPARα was fused to DNA binding domain of Yeast transcription factor GAL4 in eucaryotic expression vector. Using superfect (Qiagen, Germany) as transfecting reagent HEK-293 cells were transfected with this plasmid and a reporter plasmid harboring the luciferase gene driven by a GAL4 specific promoter. Compound was added at different concentrations after 42 hrs of transfection and incubated overnight. Luciferase activity as a function of compound binding/activation capacity of PPARα was measured using Packard Luclite kit (Packard, USA) in Top Count (Ivan Sadowski, Brendan Bell, Peter Broag and Melvyn Hollis. Gene. 1992. 118: 137-141; Superfect Transfection Reagent Handbook. February 1997. Qiagen, Germany).
In general terms: Reporter assays use an easily measured gene product as a stand-in for the process of interest.

Series [4] concerns the target T2, hPPARγ1 (Homo sapiens, UniProt P37231).
T2 construct: expressed in transfected cells; host or cells: HEK-293
T2 sequence (P37231 238-503 limits assumed): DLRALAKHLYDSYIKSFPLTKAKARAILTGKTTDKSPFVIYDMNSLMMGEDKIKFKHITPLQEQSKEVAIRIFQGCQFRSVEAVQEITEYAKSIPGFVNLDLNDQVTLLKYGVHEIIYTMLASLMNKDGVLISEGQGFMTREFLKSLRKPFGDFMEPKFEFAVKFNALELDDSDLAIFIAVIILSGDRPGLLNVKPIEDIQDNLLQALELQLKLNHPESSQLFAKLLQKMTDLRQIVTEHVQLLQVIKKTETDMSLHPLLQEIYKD
In words: Determination of hPPARγ activity (GAL4 fusion luciferase reporter in transfected HEK-293 cells). Format: cell-based. Particulars: compound concentration 1 μM. On the procedure: b) Determination of hPPARγ Activity
Ligand binding domain of hPPARγ1 was fused to DNA binding domain of Yeast transcription factor GAL4 in eucaryotic expression vector. Using lipofectamine (Gibco BRL, USA) as transfecting reagent HEK-293 cells were transfected with this plasmid and a reporter plasmid harboring the luciferase gene driven by a GAL4 specific promoter. Compound was added at 1 μM concentration after 48 hrs of transfection and incubated overnight. Luciferase activity as a function of drug binding/activation capacity of PPARγ1 was measured using Packard Luclite kit (Packard, USA) in Packard Top Count (Ivan Sadowski, Brendan Bell, Peter Broag and Melvyn Hollis. Gene. 1992. 118: 137-141; Guide to Eukaryotic Transfections with Cationic Lipid Reagents. Life Technologies, GIBCO BRL, USA).

With `CCO[C@@H](Cc1ccc(OCCn2c(N=[N+]=[N-])nc3ccccc3c2=O)cc1)C(=O)O` [Example 12, (−)-3-[4-[2-(2-Azido-4-oxo-3,4-dihydroquinazolin-3-yl)ethoxy]phenyl]-2-ethoxypropanoic acid magnesium salt], in series [1] (dose 0.3 mg/kg), the “Triglyceride Lowering (%)” value was 37%. On to `CCO[C@@H](Cc1ccc(OCCn2c(CC)nc3ccccc3c2=O)cc1)C(=O)O` [Example 3, (−)-3-[4-[2-(2-Ethyl-4-oxo-3,4-dihydroquinazolin-3-yl)ethoxy]phenyl]-2-ethoxypropanoic acid dicyclohexylamine salt], for which the “Triglyceride Lowering (%)” value in series [1] (dose 3 mg/kg) stood at 81%. In the case of `CCCc1nn(C)c2c(=O)n(CCOc3ccc(C[C@H](OCC)C(=O)O)cc3)c(CC)nc12` [Example 45, (−)-3-[4-[2-(1-Methyl-5-ethyl-7-oxo-3-propyl-6,7-dihydro-1H-pyrazolo[4,3-d]pyrimidin-6-yl)ethoxy]phenyl]-2-ethoxypropionic acid Lysine salt], in series [2], the “AUC (0-∞)” value turned out to be 101.29 µg·h/mL, the “AUC(0-t)” value turned out to be 99.33 µg·h/mL, the Cmax stood at 24.22 µg/mL and the Kel was determined as 0.42 h⁻¹. Further, in series [2], the Tmax is listed as 2.38 h and the t½ was determined as 1.72 h. The “Triglyceride Lowering (%)” value in series [1] (dose 3 mg/kg) worked out at 81%.

In series [3], `CCCc1nn(C)c2c(=O)n(CCOc3ccc(C[C@H](OCC)C(=O)O)cc3)c(CC)nc12` [Example 41, (−)-3-[4-[2-(1-Methyl-5-ethyl-7-oxo-3-propyl-6,7-dihydro-1H-pyrazolo[4,3-d]pyrimidin-6-yl)ethoxy]phenyl]-2-ethoxypropionic acid dicyclohexylamine salt] registered a PPARα of 3.1. This molecule had a PPARγ in series [4] of 13.0.

For `CCO[C@@H](Cc1ccc(OCCn2c(CC)nc3ccccc3c2=O)cc1)C(=O)O` [Example 1, (−)-3-[4-[2-(2-Ethyl-4-oxo-3,4-dihydroquinazolin-3-yl)ethoxy]phenyl]-2-ethoxypropanoic acid phenyl glycinol salt], the “Triglyceride Lowering (%)” value in series [1] (dose 3 mg/kg) worked out at 87%. As for `CCCc1nn(C)c2c(=O)n(CCOc3ccc(C[C@H](OCC)C(=O)O)cc3)c(CC)nc12` [Example 38, (−)-3-[4-[2-(1-Methyl-5-ethyl-7-oxo-3-propyl-6,7-dihydro-1H-pyrazolo[4,3-d]pyrimidin-6-yl)ethoxy]phenyl]-2-ethoxypropionic acid S-(+)-phenylglycinol salt], in series [3], the PPARα worked out at 3.3. In addition, in series [4], the PPARγ was 12.0.

Take `CCCc1nn(C)c2c(=O)n(CCOc3ccc(C[C@H](OCC)C(=O)O)cc3)c(CC)nc12` [Example 36, (−)-3-[4-[2-(1-Methyl-5-ethyl-7-oxo-3-propyl-6,7-dihydro-1H-pyrazolo[4,3-d]pyrimidin-6-yl)ethoxy]phenyl]-2-ethoxypropionic acid arginine salt]: the PPARγ in series [4] stood at 11.4. The molecule `CCCc1nn(C)c2c(=O)n(CCOc3ccc(C[C@H](OCC)C(=O)O)cc3)c(C)nc12` (as salt: salt) [Example 24, 3-[4-[2-(1,5-Dimethyl-7-oxo-3-propyl-6,7-dihydro-1H-pyrazolo[4,3-d]pyrimidin-6-yl)ethoxy]phenyl]-2-ethoxypropionic acid aminoguanidine hydrogen carbonate salt] returned a melting point of 110 to 112 °C. `CCCc1nn(C)c2c(=O)n(CCOc3ccc(CC(OCC)C(=O)[O-])cc3)c(C)nc12.CCCc1nn(C)c2c(=O)n(CCOc3ccc(CC(OCC)C(=O)[O-])cc3)c(C)nc12.[Mg+2]` (stereo not shown) [Example 16, 3-[4-[2-(1,5-Dimethyl-7-oxo-3-propyl-6,7-dihydro-1H-pyrazolo[4,3-d]pyrimidin-6-yl)ethoxy]phenyl]-2-ethoxypropionic acid magnesium salt]: the PPARα in series [3] stood at 3.4. The molecule also gave a PPARγ in series [4] of 13.5. The molecule `CCCc1nn(C)c2c(=O)n(CCOc3ccc(C[C@H](OCC)C(=O)O)cc3)c(CC)nc12` (as salt: tromethamine) [Example 40, (−)-3-[4-[2-(1-Methyl-5-ethyl-7-oxo-3-propyl-6,7-dihydro-1H-pyrazolo[4,3-d]pyrimidin-6-yl)ethoxy]phenyl]-2-ethoxypropionic acid tromethamine salt] registered a melting point of 116 to 118 °C. On to `CCCc1nn(C)c2c(=O)n(CCOc3ccc(C[C@H](OCC)C(=O)[O-])cc3)c(C)nc12.[Na+]` [Example 20, 3-[4-[2-(1,5-Dimethyl-7-oxo-3-propyl-6,7-dihydro-1H-pyrazolo[4,3-d]pyrimidin-6-yl)ethoxy]phenyl]-2-ethoxypropionic acid sodium salt], for which the PPARα in series [3] is 3.5. Also, the PPARγ in series [4] is on record as 13.0. In turn, `CCCc1nn(C)c2c(=O)n(CCOc3ccc(C[C@H](OCC)C(=O)[O-])cc3)c(CC)nc12.[Li+]` (stereo in doubt) came in with a melting point of 215 to 218 °C.

`CCCc1nn(C)c2c(=O)n(CCOc3ccc(C[C@H](OCC)C(=O)O)cc3)c(C)nc12` [Example 23, 3-[4-[2-(1,5-Dimethyl-7-oxo-3-propyl-6,7-dihydro-1H-pyrazolo[4,3-d]pyrimidin-6-yl)ethoxy]phenyl]-2-ethoxypropionic acid S-(+)-phenylglycinol salt] registered a PPARα in series [3] of 3.4. Moreover, the PPARγ in series [4] is recorded as 11.5. As to `CCO[C@@H](Cc1ccc(OCCn2c(CC)nc3ccccc3c2=O)cc1)C(=O)O` (as salt: salt) [Example 11, (−)-3-[4-[2-(2-Ethyl-4-oxo-3,4-dihydroquinazolin-3-yl)ethoxy]phenyl]-2-ethoxypropanoic acid arginine salt], the melting point is 216 to 220 °C.

Values taken from US20020169175A1, “Pharmaceutically acceptable salts of heterocyclic compounds” (DR. REDDY'S LABORATORIES LTD., priority 2001, published 2002).
